Laboratory results: patent US12607406B2, “Recombinant virus, composition comprising the same, and uses thereof” (ACADEMIA SINICA, priority 2016, dated 2026)

Assays:
[1] = system: Influenza A virus A/WSN/33 (H1N1) neuraminidase (NA), wild type, SEQ ID NO: 4; type: biochemical
[2] = system: Influenza A virus A/WSN/33 (H1N1) neuraminidase (NA) on virus, wild type, SEQ ID NO: 4; type: biochemical

SMILES | Kcat [1] | Km [1] | Vmax [1] | Km [2]
CC(=O)N[C@H]1[C@H]([C@H](O)[C@H](O)CO)O[C@@](Oc2ccc3c(C)cc(=O)oc3c2)(C(=O)O)C[C@@H]1O [4-Muα-Neu5Ac, 2-(4-methylumbelliferyl)-α-D-N-acetylneuraminic acid] | 514.3 s⁻¹ | 585 µM | 5.025 nM/s | 487 µM
CC(=O)N[C@H]1[C@H]([C@H](O)[C@H](O)CO)O[C@@](O[C@H]2[C@@H](O)[C@@H](CO)O[C@@H](O[C@H]3[C@H](O)[C@@H](NC(C)=O)C(O)O[C@@H]3CO)[C@@H]2O)(C(=O)O)C[C@@H]1O (stereo partly drawn) [3SLN, 3′-sialyl-N-acetyllactosamine] | 688.2 s⁻¹ | 125 µM | 7.04 nM/s | 115 µM
CC(=O)N[C@H]1[C@H]([C@H](O)[C@H](O)CO)O[C@@](OC[C@H]2O[C@@H](O[C@H]3[C@H](O)[C@@H](NC(C)=O)C(O)O[C@@H]3CO)[C@H](O)[C@@H](O)[C@H]2O)(C(=O)O)C[C@@H]1O (stereo partly drawn) [6SLN, 6′-sialyl-N-acetyllactosamine] | 104.2 s⁻¹ | 679 µM | 1.07 nM/s | 534 µM
